Assay results published in patent US20260262643A1, “HERBICIDAL BENZOXAZINES” (FMC CORPORATION, priority 2022, published 2026).

Experiments:
barnyardgrass [1] = assay: Test C preemergence; assay type: in vivo, Echinochloa crusgalli
Outline: (§1)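 Soil-applied (pre) and foliar (post, 1–2 leaf, 2–10 cm) sprays; surfactant-containing non-phytotoxic solvent vehicle; loam/sand substrate. Readout: visual % control at 10 d, greenhouse, versus untreated.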

blackgrass [2] = assay: Test C preemergence; assay type: in vivo, Alopecurus myosuroides
Outline: as §1

corn [3] = assay: Test C preemergence; assay type: in vivo, Zea mays
Outline: as §1

foxtail, giant [4] = assay: Test C preemergence; assay type: in vivo, Setaria faberi
Outline: as §1

kochia [5] = assay: Test C preemergence; assay type: in vivo, Bassia scoparia
Outline: as §1

oat, wild [6] = assay: Test C preemergence; assay type: in vivo, Avena fatua
Outline: as §1

pigweed, palmer [7] = assay: Test C preemergence; assay type: in vivo, Amaranthus palmeri
Outline: as §1

ragweed [8] = assay: Test C preemergence; assay type: in vivo, Ambrosia artemisiifolia
Outline: as §1

ryegrass, Italian [9] = assay: Test C preemergence; assay type: in vivo, Lolium multiflorum
Outline: as §1

soybean [10] = assay: Test C preemergence; assay type: in vivo, Glycine max
Outline: as §1

wheat [11] = assay: Test C preemergence; assay type: in vivo, Triticum aestivum
Outline: as §1

barnyardgrass [12] = assay: Test C postemergence; assay type: in vivo, Echinochloa crusgalli; conditions: 10 days, 0 to 100 scale (0 no effect, 100 complete control)
Outline: as §1

blackgrass [13] = assay: Test C postemergence; assay type: in vivo, Alopecurus myosuroides; conditions: 10 days, 0 to 100 scale (0 no effect, 100 complete control)
Outline: as §1

corn [14] = assay: Test C postemergence; assay type: in vivo, Zea mays; conditions: 10 days, 0 to 100 scale (0 no effect, 100 complete control)
Outline: as §1

foxtail, giant [15] = assay: Test C postemergence; assay type: in vivo, Setaria faberi; conditions: 10 days, 0 to 100 scale (0 no effect, 100 complete control)
Outline: as §1

kochia [16] = assay: Test C postemergence; assay type: in vivo, Bassia scoparia; conditions: 10 days, 0 to 100 scale (0 no effect, 100 complete control)
Outline: as §1

oat, wild [17] = assay: Test C postemergence; assay type: in vivo, Avena fatua; conditions: 10 days, 0 to 100 scale (0 no effect, 100 complete control)
Outline: as §1

pigweed, palmer [18] = assay: Test C postemergence; assay type: in vivo, Amaranthus palmeri; conditions: 10 days, 0 to 100 scale (0 no effect, 100 complete control)
Outline: as §1

ragweed [19] = assay: Test C postemergence; assay type: in vivo, Ambrosia artemisiifolia; conditions: 10 days, 0 to 100 scale (0 no effect, 100 complete control)
Outline: as §1

ryegrass, Italian [20] = assay: Test C postemergence; assay type: in vivo, Lolium multiflorum; conditions: 10 days, 0 to 100 scale (0 no effect, 100 complete control)
Outline: as §1

soybean [21] = assay: Test C postemergence; assay type: in vivo, Glycine max; conditions: 10 days, 0 to 100 scale (0 no effect, 100 complete control)
Outline: as §1

wheat [22] = assay: Test C postemergence; assay type: in vivo, Triticum aestivum; conditions: 10 days, 0 to 100 scale (0 no effect, 100 complete control)
Outline: as §1

galium = assay: Test C postemergence; assay type: in vivo, Galium aparine; conditions: 10 days, 0 to 100 scale (0 no effect, 100 complete control)
Outline: as §1

horseweed = assay: Test C postemergence; assay type: in vivo, Erigeron canadensis; conditions: 10 days, 0 to 100 scale (0 no effect, 100 complete control)
Outline: as §1

barnyardgrass [23] = assay: Test D flooded paddy test; assay type: in vivo, Echinochloa crus-galli; conditions: 250 g ai/ha, applied to paddy water, visual rating after 13 to 14 days, scale 0 to 100 (0 no effect, 100 complete control)
Outline: (§2)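 2-leaf plants; flood 3 cm above soil; compound dosed into paddy water; greenhouse 13–14 d; visual rating vs controls, 0–100 (100 = complete control); dash = not tested.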

ducksalad = assay: Test D flooded paddy test; assay type: in vivo, Heteranthera limosa; conditions: 250 g ai/ha, applied to paddy water, visual rating after 13 to 14 days, scale 0 to 100 (0 no effect, 100 complete control)
Outline: as §2

rice = assay: Test D flooded paddy test; assay type: in vivo, Oryza sativa; conditions: 250 g ai/ha, applied to paddy water, visual rating after 13 to 14 days, scale 0 to 100 (0 no effect, 100 complete control)
Outline: as §2

sedge, umbrella = assay: Test D flooded paddy test; assay type: in vivo, Cyperus difformis; conditions: 250 g ai/ha, applied to paddy water, visual rating after 13 to 14 days, scale 0 to 100 (0 no effect, 100 complete control)
Outline: as §2

[24] = 500 g ai/ha, preemergence, 0 to 100 scale (0 no effect, 100 complete control)
[25] = Preemergence, 125 g ai/ha, 0 to 100 scale, 0 no effect, 100 complete control

CC(C)c1ncn(-c2cc(C(=O)N3CC(C(F)(F)F)Oc4c(Cl)cccc43)ccn2)n1 (single isomer, unassigned) [Compound 331]
Barnyardgrass plant response rating (barnyardgrass [1]; [24]): 0 | Plant response rating, Barnyardgrass (barnyardgrass [1]; [25]): 0 | Blackgrass plant response rating (blackgrass [2]; [24]): 70 | Plant response rating, Blackgrass (blackgrass [2]; [25]): 20 | Corn plant response rating (corn [3]; [24]): 0 | Plant response rating, Corn (corn [3]; [25]): 0 | Foxtail, Giant plant response rating (foxtail, giant [4]; [24]): 60 | Plant response rating, Foxtail, Giant (foxtail, giant [4]; [25]): 20 | Kochia plant response rating (kochia [5]; [24]): 20 | Plant response rating, Kochia (kochia [5]; [25]): 0 | Oat, Wild plant response rating (oat, wild [6]; [24]): 20 | Plant response rating, Oat, Wild (oat, wild [6]; [25]): 0 | Pigweed, Palmer plant response rating (pigweed, palmer [7]; [24]): 100 | Plant response rating, Pigweed, Palmer (pigweed, palmer [7]; [25]): 30 | Ragweed plant response rating (ragweed [8]; [24]): 0 | Plant response rating, Ragweed (ragweed [8]; [25]): 0 | Ryegrass, Italian plant response rating (ryegrass, Italian [9]; [24]): 60 | Plant response rating, Ryegrass, Italian (ryegrass, Italian [9]; [25]): 60 | Soybean plant response rating (soybean [10]; [24]): 0 | Plant response rating, Soybean (soybean [10]; [25]): 0 | Wheat plant response rating (wheat [11]; [24]): 0 | Plant response rating, Wheat (wheat [11]; [25]): 0 | Plant response rating, Barnyardgrass (barnyardgrass [12]; 500 g ai/ha, postemergence): 30 | Plant response rating, Barnyardgrass (barnyardgrass [12]; Postemergence, 125 g ai/ha): 10 | Plant response rating, Blackgrass (blackgrass [13]; 500 g ai/ha, postemergence): 20 | Plant response rating, Blackgrass (blackgrass [13]; Postemergence, 125 g ai/ha): 0 | Plant response rating, Corn (corn [14]; 500 g ai/ha, postemergence): 40 | Plant response rating, Corn (corn [14]; Postemergence, 125 g ai/ha): 10 | Plant response rating, Foxtail, Giant (foxtail, giant [15]; 500 g ai/ha, postemergence): 40 | Plant response rating, Foxtail, Giant (foxtail, giant [15]; Postemergence, 125 g ai/ha): 30 | Plant response rating, Kochia (kochia [16]; 500 g ai/ha, postemergence): 70 | Plant response rating, Kochia (kochia [16]; Postemergence, 125 g ai/ha): 40 | Plant response rating, Oat, Wild (oat, wild [17]; 500 g ai/ha, postemergence): 0 | Plant response rating, Oat, Wild (oat, wild [17]; Postemergence, 125 g ai/ha): 0 | Plant response rating, Pigweed, Palmer (pigweed, palmer [18]; 500 g ai/ha, postemergence): 50 | Plant response rating, Pigweed, Palmer (pigweed, palmer [18]; Postemergence, 125 g ai/ha): 20 | Plant response rating, Ragweed (ragweed [19]; 500 g ai/ha, postemergence): 0 | Plant response rating, Ragweed (ragweed [19]; Postemergence, 125 g ai/ha): 0 | Plant response rating, Ryegrass, Italian (ryegrass, Italian [20]; 500 g ai/ha, postemergence): 10 | Plant response rating, Ryegrass, Italian (ryegrass, Italian [20]; Postemergence, 125 g ai/ha): 0 | Plant response rating, Soybean (soybean [21]; 500 g ai/ha, postemergence): 100 | Plant response rating, Soybean (soybean [21]; Postemergence, 125 g ai/ha): 90 | Plant response rating, Wheat (wheat [22]; 500 g ai/ha, postemergence): 20 | Plant response rating, Wheat (wheat [22]; Postemergence, 125 g ai/ha): 10 | Plant response rating, Galium (galium; 500 g ai/ha, postemergence): 50 | Plant response rating, Galium (galium; Postemergence, 125 g ai/ha): 50 | Plant response rating, Horseweed (horseweed; 500 g ai/ha, postemergence): 0 | Plant response rating, Horseweed (horseweed; Postemergence, 125 g ai/ha): 0 | Plant response rating, Barnyardgrass (Flood) (barnyardgrass [23]): 0 | Plant response rating, Ducksalad (Flood) (ducksalad): 0 | Plant response rating, Rice (Flood) (rice): 0 | Plant response rating, Sedge, Umbrella (Flood) (sedge, umbrella): 0
